From patent publication US8658167B2, “Methods and compositions for treatment and diagnosis of fibrosis, tumor invasion, angiogenesis, and metastasis” (Gilead Biologics, Inc., priority 2007, dated 2014)
One block for each compound: values may come before it.

Experiments:
MDA-MB-231 = assay: Drug sensitivity assays with LOX/LOXL inhibition (CellTiter Glo viability); format: cell-based, human
Description: After 5 days of continuous exposure, cultures were rinsed and live cell number was determined using CellTiter Glo™ (Promega, San Luis Obispo, Calif.) according to manufacturer instructions. […] (FIGS. 36, 37, 38)
For siRNA drug sensitivity studies, cells were transiently transfected with […] LOX, LOXL2, or non-targeting Stealth Select™ RNAi validated oligos using the Dharmafect transfection reagent according to manufacturer instructions (Thermo Scientific, Lafayette, Colo.) 24 hrs prior to drug exposure. Knock down levels following drug exposure were verified with quantitative PCR. Stable shRNA cell lines were generated using the MISSION© shRNA Lentiviral System (Sigma-Aldrich, St. Louis, Mo.).

LOXL2 = assay: Mode of inhibition of LOXL2; format: biochemical; settings: 1,5-diaminopentane substrate; FIG. 21
Description: Mode of inhibition of antibodies against LOXL2 was conducted using the model described below. In these experiments, the dependence of the steady state rate on the concentration of 1,5-diaminopentane was monitored under increasing concentrations of antibody. The purpose was to assess whether the Km for substrate, kcat or both change in the presence of antibody. Parameter α describes the effect of the compound on substrate affinity. An α value equal to one describes a situation in which the compound binds equally well the free enzyme and the enzyme-substrate complex (non-competitive inhibition like). Values less than one describe an interaction in which the compound binds the enzyme-substrate complex (uncompetitive inhibition like). Values greater than one correspond to the compound binding the free enzyme better than the enzyme-substrate complex (competitive inhibition like). The β value describes the effect of the modulator on the rate of the enzyme. Inhibitors have values less than one (for a complete inhibitor β=0) and activators have values greater than one. […] The steady state rates were determined from the slope of the fluorescence response as a function of time as described above. Data was plotted as the dependence of steady state rate on the concentration of substrate (1,5-diaminopentane) at several fixed concentrations of antibody and analyzed with GraFit.

LOX = biological target: T1, LOX (Mus musculus, UniProt P28301); assay: Surface-associated LOX activity in 3T3 cells (HRP-coupled Amplex Ultra Red assay, 1,5-diaminopentane substrate); format: cell-based; settings: BAPN 1 mM; LOX mAb 15 ug/ml; LOX siRNA 100 nM, day seven after transfection; FIG. 15
T1 construct: Specific LOX activity was evident on the cell surface of NIH3T3 cells; endogenous in cells; host or cells: NIH 3T3
T1 sequence (P28301 163-411): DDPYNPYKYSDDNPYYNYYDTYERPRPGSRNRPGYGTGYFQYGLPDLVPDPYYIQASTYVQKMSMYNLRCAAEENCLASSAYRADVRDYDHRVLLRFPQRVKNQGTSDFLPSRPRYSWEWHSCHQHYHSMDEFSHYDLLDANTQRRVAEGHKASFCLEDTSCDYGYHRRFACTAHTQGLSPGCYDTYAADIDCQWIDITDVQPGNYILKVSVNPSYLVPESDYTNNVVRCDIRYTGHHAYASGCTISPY
Description: Specific LOX activity was evident on the cell surface of NIH3T3 cells. Activity was quantitated with a horseradish peroxidase-coupled fluorescent assay method based on the oxidation of Amplex Ultra Red with a 1,5-diaminopentane substrate. LOX activity was inhibited with the irreversible small molecule inhibitor, BAPN, with a monoclonal antibody raised against a LOX peptide, and with a siRNA oligonucleotide specifically targeting LOX mRNA. (FIG. 15)
NIH 3T3 cells were transfected with 100 nM of LOX siRNA (Invitrogen Stealth, HSS106117, […] (SEQ ID NO:20)) or non-targeting control. 25 ul of Dharmafect® #3 (Dharmacon) was mixed with 1 ml of OPTIMEM I® (Invitrogen) and sat for 5 minutes at room temperature. 50 ul of 20 uM siRNA was then added, mixed and the transfection mix was incubated at room temperature for 15 minutes. 1 ml of transfection mix was then added to a trypsinized cell suspension in growth media containing 1×10^6 cells and the resulting mixture was plated into a 10 cm^2 culture dish. Six days after transfection, cells were trypsinized and re-plated into 96 well plate format at 50,000 cells/well. […] The plate was read in a Molecular Devices M5 plate reader at 37° C. The plate reader was configured to read fluorescence (ex=544 nm, em=590 nm) in kinetics mode for approximately 2.5 hours.

SMILES: C#Cc1cccc(Nc2ncnc3cc(OCCOC)c(OCCOC)cc23)c1 [erlotinib, Erlotinib]
reduction in cell viability (calculated IC50 compared to control line) (MDA-MB-231; shLOXL2 knockdown cell line (shLOXL2.195) vs sh control, parental MDA-MB-231, FIG. 36): approximately 7 fold

SMILES: N#CCCN [BAPN, β-aminoproprionitrile]
mode of inhibition of LOXL2 (LOXL2): competitive inhibitor | surface-associated LOX activity in 3T3 cells (LOX): inhibited

decrease of calculated IC50 (MDA-MB-231; MDA-MB-231 siLOX, siLOXL2 and siLOX/siLOXL2 double knockdown cell lines vs parent cell line (control), FIG. 39A): 27%-55%
SMILES: COc1cccc2c1C(=O)c1c(O)c3c(c(O)c1C2=O)C[C@@](O)(C(=O)CO)C[C@@H]3O[C@H]1C[C@H](N)[C@H](O)[C@H](C)O1 [doxorubicin]

SMILES: CN(Cc1cnc2nc(N)nc(N)c2n1)c1ccc(C(=O)N[C@@H](CCC(=O)O)C(=O)O)cc1 [methotrexate (MTX), methotrexate]
reduction in viability (MDA-MB-231; MDA-MB-231 shLOX knockdown cell line vs GFP control, FIG. 37): ~2 fold
